Key:
[1] = target: Protein kinase C beta type (Homo sapiens) (UniProt P05771); experiment: Inhibition of PKCbeta1 (unknown origin) at 1 uM by single point assay
[2] = target: T1, Interleukin-1 receptor-associated kinase 4 (Homo sapiens) (UniProt Q9NWZ3); experiment: Inhibition of IRAK4 (unknown origin) at 1 uM by single point assay
T1 sequence (whole entry): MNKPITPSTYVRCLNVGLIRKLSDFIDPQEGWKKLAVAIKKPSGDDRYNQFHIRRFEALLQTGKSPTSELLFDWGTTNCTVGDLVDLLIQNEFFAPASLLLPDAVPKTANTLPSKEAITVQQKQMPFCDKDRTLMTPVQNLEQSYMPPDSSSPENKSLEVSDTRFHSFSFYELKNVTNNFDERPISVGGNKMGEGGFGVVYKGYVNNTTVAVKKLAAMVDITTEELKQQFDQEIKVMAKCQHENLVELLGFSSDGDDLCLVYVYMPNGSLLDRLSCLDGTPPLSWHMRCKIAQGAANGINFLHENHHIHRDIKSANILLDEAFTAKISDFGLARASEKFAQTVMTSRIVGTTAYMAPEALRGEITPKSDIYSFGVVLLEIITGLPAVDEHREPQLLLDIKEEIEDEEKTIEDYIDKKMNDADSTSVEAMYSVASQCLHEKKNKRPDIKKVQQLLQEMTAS

[3] = target: Dual specificity protein kinase CLK1 (Homo sapiens) (UniProt P49759); experiment: Inhibition of CLK1 (unknown origin) at 1 uM by single point assay
[4] = target: T2, Serine/threonine-protein kinase 3 (Homo sapiens) (UniProt Q13188); experiment: Inhibition of STK3 (unknown origin) at 1 uM by single point assay
T2 sequence (whole entry): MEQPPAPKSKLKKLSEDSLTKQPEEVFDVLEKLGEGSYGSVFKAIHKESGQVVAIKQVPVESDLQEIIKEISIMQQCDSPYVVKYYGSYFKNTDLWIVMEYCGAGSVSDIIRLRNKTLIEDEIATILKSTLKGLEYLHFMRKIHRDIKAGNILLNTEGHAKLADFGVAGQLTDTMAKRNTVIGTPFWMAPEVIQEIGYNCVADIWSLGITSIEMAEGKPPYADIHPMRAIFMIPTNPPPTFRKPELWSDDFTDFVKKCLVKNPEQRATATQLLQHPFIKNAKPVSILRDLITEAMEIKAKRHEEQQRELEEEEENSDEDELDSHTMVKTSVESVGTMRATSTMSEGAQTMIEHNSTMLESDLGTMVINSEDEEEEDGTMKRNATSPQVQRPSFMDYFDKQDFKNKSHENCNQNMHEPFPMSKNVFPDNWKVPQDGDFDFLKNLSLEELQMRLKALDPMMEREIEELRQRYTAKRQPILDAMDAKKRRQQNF

[5] = target: T3, Serine/threonine-protein kinase Chk1 (Homo sapiens) (UniProt O14757); experiment: Inhibition of CHK1 (unknown origin) at 1 uM by single point assay
T3 sequence (whole entry): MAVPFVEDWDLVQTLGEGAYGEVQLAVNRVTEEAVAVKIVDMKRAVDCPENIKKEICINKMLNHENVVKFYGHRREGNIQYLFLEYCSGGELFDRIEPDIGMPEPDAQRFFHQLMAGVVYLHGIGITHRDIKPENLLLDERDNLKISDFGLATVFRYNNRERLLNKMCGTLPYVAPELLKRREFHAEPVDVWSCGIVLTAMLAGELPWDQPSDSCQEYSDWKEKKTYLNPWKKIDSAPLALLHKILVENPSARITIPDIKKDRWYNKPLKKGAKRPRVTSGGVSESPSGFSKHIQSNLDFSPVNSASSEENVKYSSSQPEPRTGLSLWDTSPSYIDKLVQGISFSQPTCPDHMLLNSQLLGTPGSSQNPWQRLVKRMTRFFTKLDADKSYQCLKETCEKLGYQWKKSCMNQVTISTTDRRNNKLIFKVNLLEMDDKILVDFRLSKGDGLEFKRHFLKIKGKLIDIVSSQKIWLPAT

[6] = target: Rho-associated protein kinase 2 (Homo sapiens) (UniProt O75116); experiment: Inhibition of ROCK2 (unknown origin) at 1 uM by single point assay
[7] = target: Macrophage colony-stimulating factor 1 receptor (Homo sapiens) (UniProt P07333); experiment: Inhibition of CSF1R (unknown origin) at 1 uM by single point assay
[8] = target: Tyrosine-protein kinase Lck (Homo sapiens) (UniProt P06239); experiment: Inhibition of LCK (unknown origin) at 1 uM by single point assay
[9] = target: T4, Dual specificity protein kinase TTK (Homo sapiens) (UniProt P33981); experiment: Inhibition of TTK (unknown origin) at 1 uM by single point assay
T4 sequence (whole entry): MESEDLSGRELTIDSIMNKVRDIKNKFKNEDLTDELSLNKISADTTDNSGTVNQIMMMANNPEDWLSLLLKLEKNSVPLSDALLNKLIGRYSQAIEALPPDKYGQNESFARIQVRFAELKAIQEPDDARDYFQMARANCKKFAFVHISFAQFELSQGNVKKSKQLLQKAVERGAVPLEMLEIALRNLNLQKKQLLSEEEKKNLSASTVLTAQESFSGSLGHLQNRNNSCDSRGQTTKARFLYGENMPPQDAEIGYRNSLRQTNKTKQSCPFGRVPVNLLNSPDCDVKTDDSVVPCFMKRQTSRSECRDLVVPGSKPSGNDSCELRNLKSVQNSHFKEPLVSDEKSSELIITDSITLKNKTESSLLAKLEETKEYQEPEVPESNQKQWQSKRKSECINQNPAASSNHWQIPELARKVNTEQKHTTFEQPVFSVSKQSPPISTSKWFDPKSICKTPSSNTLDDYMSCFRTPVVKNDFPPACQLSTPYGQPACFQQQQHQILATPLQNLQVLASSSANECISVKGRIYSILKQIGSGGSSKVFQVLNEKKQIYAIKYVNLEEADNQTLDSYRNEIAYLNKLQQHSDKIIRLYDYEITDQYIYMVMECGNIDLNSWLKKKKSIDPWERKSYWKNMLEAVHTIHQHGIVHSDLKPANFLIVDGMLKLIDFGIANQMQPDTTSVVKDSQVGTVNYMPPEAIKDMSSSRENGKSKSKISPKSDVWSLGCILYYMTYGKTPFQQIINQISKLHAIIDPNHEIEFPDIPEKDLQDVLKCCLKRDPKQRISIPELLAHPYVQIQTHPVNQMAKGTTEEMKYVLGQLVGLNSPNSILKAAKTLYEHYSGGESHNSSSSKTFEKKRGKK

Protein kinase C beta type (Homo sapiens), sequence (P05771 2-671 limits assumed): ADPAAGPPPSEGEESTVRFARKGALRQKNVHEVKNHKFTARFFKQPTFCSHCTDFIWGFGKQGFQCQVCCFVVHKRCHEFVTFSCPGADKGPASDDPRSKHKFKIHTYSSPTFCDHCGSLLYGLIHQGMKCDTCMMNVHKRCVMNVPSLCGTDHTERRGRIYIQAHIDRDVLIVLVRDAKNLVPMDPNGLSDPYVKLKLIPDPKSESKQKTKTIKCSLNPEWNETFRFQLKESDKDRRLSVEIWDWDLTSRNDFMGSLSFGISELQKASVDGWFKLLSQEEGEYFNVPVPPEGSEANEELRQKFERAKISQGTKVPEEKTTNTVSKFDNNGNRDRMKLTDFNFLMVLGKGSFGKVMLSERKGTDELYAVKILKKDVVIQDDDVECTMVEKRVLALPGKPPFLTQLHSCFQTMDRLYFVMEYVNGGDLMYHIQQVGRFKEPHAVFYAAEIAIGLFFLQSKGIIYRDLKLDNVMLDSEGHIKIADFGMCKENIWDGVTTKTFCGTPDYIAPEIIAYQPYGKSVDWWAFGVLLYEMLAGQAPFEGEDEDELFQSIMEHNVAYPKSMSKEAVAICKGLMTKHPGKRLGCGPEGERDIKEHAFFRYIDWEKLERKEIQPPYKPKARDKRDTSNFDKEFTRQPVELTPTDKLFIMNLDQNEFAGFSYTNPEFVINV
Rho-associated protein kinase 2 (Homo sapiens), sequence (O75116 whole entry, looked up): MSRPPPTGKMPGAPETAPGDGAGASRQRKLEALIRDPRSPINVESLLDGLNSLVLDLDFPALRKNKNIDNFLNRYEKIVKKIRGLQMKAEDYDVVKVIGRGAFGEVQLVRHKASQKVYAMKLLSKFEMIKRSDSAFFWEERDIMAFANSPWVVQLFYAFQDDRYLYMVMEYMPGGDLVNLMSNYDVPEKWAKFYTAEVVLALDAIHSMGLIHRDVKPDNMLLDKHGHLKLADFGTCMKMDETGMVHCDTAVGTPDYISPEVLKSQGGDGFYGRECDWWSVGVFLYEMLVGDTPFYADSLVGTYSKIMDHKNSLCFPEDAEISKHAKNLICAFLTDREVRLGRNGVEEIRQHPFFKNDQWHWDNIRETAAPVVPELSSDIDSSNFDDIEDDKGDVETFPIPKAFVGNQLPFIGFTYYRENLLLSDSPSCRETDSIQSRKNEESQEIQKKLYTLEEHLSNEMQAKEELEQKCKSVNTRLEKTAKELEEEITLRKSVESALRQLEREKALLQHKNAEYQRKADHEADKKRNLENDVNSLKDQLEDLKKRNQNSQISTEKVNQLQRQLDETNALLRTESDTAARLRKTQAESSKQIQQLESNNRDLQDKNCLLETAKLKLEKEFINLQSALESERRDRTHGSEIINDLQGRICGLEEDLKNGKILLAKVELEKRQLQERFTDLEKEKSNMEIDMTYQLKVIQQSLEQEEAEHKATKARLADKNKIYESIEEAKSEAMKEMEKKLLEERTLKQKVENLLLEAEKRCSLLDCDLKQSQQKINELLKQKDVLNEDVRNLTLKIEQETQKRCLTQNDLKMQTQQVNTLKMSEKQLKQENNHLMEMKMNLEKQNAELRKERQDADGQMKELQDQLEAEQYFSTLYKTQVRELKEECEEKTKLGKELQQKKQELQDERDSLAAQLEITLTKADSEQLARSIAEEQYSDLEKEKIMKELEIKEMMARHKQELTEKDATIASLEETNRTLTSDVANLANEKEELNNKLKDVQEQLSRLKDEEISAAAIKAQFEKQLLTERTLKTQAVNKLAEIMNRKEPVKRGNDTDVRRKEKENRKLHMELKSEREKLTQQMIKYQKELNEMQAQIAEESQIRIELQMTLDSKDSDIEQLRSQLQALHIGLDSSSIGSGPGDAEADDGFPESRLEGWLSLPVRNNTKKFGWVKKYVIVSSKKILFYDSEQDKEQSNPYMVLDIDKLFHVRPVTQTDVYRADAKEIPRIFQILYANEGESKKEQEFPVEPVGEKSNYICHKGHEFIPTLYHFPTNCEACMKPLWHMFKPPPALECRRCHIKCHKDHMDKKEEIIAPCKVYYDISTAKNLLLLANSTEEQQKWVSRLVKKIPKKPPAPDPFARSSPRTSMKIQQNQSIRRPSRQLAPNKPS
Dual specificity protein kinase CLK1 (Homo sapiens), sequence (P49759 whole entry, looked up): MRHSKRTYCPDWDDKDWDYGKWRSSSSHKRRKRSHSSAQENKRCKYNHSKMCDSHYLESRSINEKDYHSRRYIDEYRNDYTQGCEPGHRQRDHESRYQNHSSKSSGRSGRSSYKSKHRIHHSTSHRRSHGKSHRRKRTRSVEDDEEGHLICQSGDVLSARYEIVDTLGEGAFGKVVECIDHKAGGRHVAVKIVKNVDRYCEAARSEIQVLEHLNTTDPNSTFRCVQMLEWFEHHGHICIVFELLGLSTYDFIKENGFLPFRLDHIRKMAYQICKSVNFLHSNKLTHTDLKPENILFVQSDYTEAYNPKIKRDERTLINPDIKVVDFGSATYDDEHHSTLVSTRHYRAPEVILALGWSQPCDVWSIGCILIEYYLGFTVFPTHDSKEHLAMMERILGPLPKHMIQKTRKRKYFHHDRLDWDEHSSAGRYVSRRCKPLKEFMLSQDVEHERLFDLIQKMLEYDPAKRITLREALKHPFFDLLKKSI
Tyrosine-protein kinase Lck (Homo sapiens), sequence (P06239 2-509 limits assumed): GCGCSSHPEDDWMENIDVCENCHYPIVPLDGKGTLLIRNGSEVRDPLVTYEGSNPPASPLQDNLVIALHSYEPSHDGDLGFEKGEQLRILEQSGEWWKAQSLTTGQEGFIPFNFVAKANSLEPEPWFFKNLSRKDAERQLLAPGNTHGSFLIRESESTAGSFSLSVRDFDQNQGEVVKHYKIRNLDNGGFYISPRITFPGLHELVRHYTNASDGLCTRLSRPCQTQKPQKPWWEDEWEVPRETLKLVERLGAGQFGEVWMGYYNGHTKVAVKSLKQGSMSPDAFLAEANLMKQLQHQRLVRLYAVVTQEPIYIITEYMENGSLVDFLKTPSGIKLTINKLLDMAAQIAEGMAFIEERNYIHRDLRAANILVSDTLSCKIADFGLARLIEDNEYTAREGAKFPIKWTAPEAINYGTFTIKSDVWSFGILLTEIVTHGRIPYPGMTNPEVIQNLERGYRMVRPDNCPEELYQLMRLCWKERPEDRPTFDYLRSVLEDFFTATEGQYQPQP
Macrophage colony-stimulating factor 1 receptor (Homo sapiens), sequence (P07333 whole entry): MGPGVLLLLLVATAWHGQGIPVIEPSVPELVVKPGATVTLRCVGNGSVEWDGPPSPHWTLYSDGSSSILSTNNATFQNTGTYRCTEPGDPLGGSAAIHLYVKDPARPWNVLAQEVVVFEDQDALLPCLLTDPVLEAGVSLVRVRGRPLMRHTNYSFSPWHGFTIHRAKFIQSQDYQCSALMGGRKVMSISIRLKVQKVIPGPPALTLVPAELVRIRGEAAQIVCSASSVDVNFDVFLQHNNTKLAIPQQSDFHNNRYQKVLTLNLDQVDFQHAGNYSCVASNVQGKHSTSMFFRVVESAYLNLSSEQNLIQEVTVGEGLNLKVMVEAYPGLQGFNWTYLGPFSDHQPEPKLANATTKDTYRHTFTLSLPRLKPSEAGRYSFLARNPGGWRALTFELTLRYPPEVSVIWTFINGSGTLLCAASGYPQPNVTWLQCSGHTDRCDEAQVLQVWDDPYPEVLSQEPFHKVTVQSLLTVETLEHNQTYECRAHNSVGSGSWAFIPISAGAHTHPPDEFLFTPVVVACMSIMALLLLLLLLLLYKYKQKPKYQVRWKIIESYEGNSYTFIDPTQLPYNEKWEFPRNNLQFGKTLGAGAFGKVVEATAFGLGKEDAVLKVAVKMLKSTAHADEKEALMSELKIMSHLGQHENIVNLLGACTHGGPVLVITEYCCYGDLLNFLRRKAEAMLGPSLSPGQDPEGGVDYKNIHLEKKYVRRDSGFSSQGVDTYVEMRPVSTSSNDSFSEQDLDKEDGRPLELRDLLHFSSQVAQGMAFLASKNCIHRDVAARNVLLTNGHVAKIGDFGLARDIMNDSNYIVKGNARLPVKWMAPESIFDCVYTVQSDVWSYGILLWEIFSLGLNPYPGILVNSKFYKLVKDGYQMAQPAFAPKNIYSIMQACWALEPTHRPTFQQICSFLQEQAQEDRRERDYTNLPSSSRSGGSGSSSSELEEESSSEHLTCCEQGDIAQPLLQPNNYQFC

inhibition [1]	inhibition [2]	inhibition [3]	inhibition [4]	inhibition [5]	inhibition [6]	inhibition [7]	inhibition [8]	inhibition [9]	Structure (SMILES)
-7%	68%	27%	15%	64%	14%	67%	31%	-9%	CC(C)Nc1c(C#N)cnc2cc(-c3cnn(C)c3)ccc12
19%	29%	32%	29%	36%	12%	60%	26%	-4%	CC(C)Nc1c(C#N)cnc2cc(-c3ccc(S(C)(=O)=O)cc3)ccc12

From ChEMBL document CHEMBL2346515, “Discovery of 4-alkylamino-7-aryl-3-cyanoquinoline LRRK2 kinase inhibitors” (Bioorg Med Chem Lett, 2013)
